Results taken from the supplement of paper PMC10307832.

Legend:
Test in all cases: relative viability (nuclei count vs DMSO), 5 days (fraction); higher = more cells survive
Carfilzomib + Dasatinib = compound: CC(C)C[C@H](NC(=O)[C@H](CCc1ccccc1)NC(=O)CN1CCOCC1)C(=O)N[C@@H](Cc1ccccc1)C(=O)N[C@@H](CC(C)C)C(=O)[C@@]1(C)CO1 [Carfilzomib] + Cc1nc(Nc2ncc(C(=O)Nc3c(C)cccc3Cl)s2)cc(N2CCN(CCO)CC2)n1 [Dasatinib] (partner 0.075 µM)
Summary of the method: (§1)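 Lung cancer cell lines in 1536-well plates got either a single drug or a fixed anchor-drug dose together with five library-drug doses (not always all listed) in √10 steps, by pin tool, on the day after seeding. Nuclei were counted after 5 days, and relative viability is the treated-to-vehicle ratio of nuclei counts. Values are medians of duplicate plates.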

Olaparib + Tozasertib = compound: O=C(c1cc(Cc2n[nH]c(=O)c3ccccc23)ccc1F)N1CCN(C(=O)C2CC2)CC1 [Olaparib] + Cc1cc(Nc2cc(N3CCN(C)CC3)nc(Sc3ccc(NC(=O)C4CC4)cc3)n2)n[nH]1 [Tozasertib] (partner 0.1 µM)
Summary of the method: as §1

Olaparib + Foretinib = compound: O=C(c1cc(Cc2n[nH]c(=O)c3ccccc23)ccc1F)N1CCN(C(=O)C2CC2)CC1 [Olaparib] + COc1cc2c(Oc3ccc(NC(=O)C4(C(=O)Nc5ccc(F)cc5)CC4)cc3F)ccnc2cc1OCCCN1CCOCC1 [Foretinib] (partner 0.25 µM)
Summary of the method: as §1

Carfilzomib + Luminespib = compound: CC(C)C[C@H](NC(=O)[C@H](CCc1ccccc1)NC(=O)CN1CCOCC1)C(=O)N[C@@H](Cc1ccccc1)C(=O)N[C@@H](CC(C)C)C(=O)[C@@]1(C)CO1 [Carfilzomib] + CCNC(=O)c1noc(-c2cc(C(C)C)c(O)cc2O)c1-c1ccc(CN2CCOCC2)cc1 [Luminespib] (partner 0.01 µM)
Summary of the method: as §1

| Cell Line | relative viability (Carfilzomib + Dasatinib; first compound 0.001 µM) | relative viability (Carfilzomib + Dasatinib; first compound 0.003162 µM) | relative viability (Carfilzomib + Dasatinib; first compound 0.01 µM) | relative viability (Carfilzomib + Dasatinib; first compound 0.03162 µM) | relative viability (Carfilzomib + Dasatinib; first compound 0.1 µM) | relative viability (Olaparib + Tozasertib; first compound 0.08 µM) | relative viability (Olaparib + Tozasertib; first compound 0.253 µM) | relative viability (Olaparib + Tozasertib; first compound 2.53 µM) | relative viability (Olaparib + Tozasertib; first compound 8 µM) | relative viability (Olaparib + Foretinib; first compound 0.08 µM) | relative viability (Olaparib + Foretinib; first compound 0.253 µM) | relative viability (Olaparib + Foretinib; first compound 2.53 µM) | relative viability (Olaparib + Foretinib; first compound 8 µM) | relative viability (Carfilzomib + Luminespib; first compound 0.001 µM) | relative viability (Carfilzomib + Luminespib; first compound 0.003162 µM) | relative viability (Carfilzomib + Luminespib; first compound 0.01 µM) | relative viability (Carfilzomib + Luminespib; first compound 0.03162 µM) | relative viability (Carfilzomib + Luminespib; first compound 0.1 µM) |
| --- | --- | --- | --- | --- | --- | --- | --- | --- | --- | --- | --- | --- | --- | --- | --- | --- | --- | --- |
| 201T | 0.51 | 0.61 | 0.643 | 0.593 | 0.522 | 1.05 | 0.91 | 0.919 | 0.879 | 1.19 | 1.12 | 1.07 | 1.05 | 0.999 | 1.15 | 1.07 | 1.02 | 0.915 |
| A549 | – | – | – | – | – | – | – | – | – | 0.996 | 0.774 | 0.872 | 0.548 | – | – | – | – | – |
| A-427 | 0.776 | 0.853 | 0.597 | 0.0935 | 0.107 | 0.196 | 0.209 | 0.188 | 0.163 | 1.03 | 1.01 | 0.769 | 0.834 | 0.837 | 1.18 | 1.05 | 0.141 | 0.112 |
| ABC-1 | 0.521 | 0.504 | 0.196 | 0.172 | 0.324 | 0.22 | 0.149 | 0.198 | 0.182 | 1.09 | 1.31 | 0.98 | 0.922 | 0.581 | 1.35 | 0.246 | 0.193 | 0.141 |
| BEN | 0.294 | 0.328 | 0.299 | 0.298 | 0.203 | 0.53 | 0.48 | 0.529 | 0.48 | – | 0.529 | 0.688 | 0.702 | 0.287 | 0.528 | 0.258 | 0.248 | 0.175 |
| CAL-12T | 0.321 | 0.484 | 0.509 | 0.174 | 0.108 | 0.345 | 0.259 | 0.281 | 0.235 | 1.24 | 0.984 | 1.07 | 0.928 | 0.486 | 0.29 | 0.478 | 0.16 | 0.141 |
| COR-L23 | 0.478 | 0.523 | 0.425 | 0.0606 | 0.0642 | 0.22 | 0.192 | 0.176 | 0.12 | 1.08 | 0.842 | 0.797 | 0.567 | 0.665 | 0.681 | 0.557 | 0.0931 | 0.0743 |
| COR-L 105 | 0.409 | 0.393 | 0.319 | 0.235 | 0.167 | 0.368 | 0.351 | 0.319 | 0.275 | 1.37 | 0.988 | 0.807 | 0.835 | 0.721 | 0.737 | 0.788 | 0.503 | 0.236 |
| Calu-6 | – | – | – | – | – | – | – | – | – | 0.892 | 0.789 | 0.855 | 0.536 | – | – | – | – | – |
| ChaGo-K-1 | 0.546 | 0.591 | 0.585 | 0.335 | 0.203 | 0.286 | 0.198 | 0.232 | 0.197 | 0.872 | 0.868 | 0.763 | 0.608 | 0.581 | 0.747 | 0.587 | 0.523 | 0.171 |
| EBC-1 | – | – | – | – | – | – | – | – | – | 0.116 | 0.094 | 0.1 | 0.107 | – | – | – | – | – |
| EKVX | 0.49 | 0.342 | 0.597 | 0.478 | 0.214 | 0.441 | 0.352 | 0.388 | 0.445 | 1.03 | 1 | 0.294 | 1.01 | 0.887 | 0.907 | 0.886 | 0.788 | 0.39 |
| EMC-BAC-2 | 0.327 | 0.363 | 0.35 | 0.256 | 0.256 | 0.284 | 0.296 | 0.279 | 0.262 | 1.05 | 0.998 | 0.953 | 0.655 | 1.13 | 1.24 | 1.26 | 1.16 | 0.225 |
| EPLC-272H | 0.379 | 0.407 | 0.215 | 0.0812 | 0.0631 | 0.193 | 0.234 | 0.312 | 0.172 | 0.764 | 0.582 | 0.729 | 0.64 | 0.266 | 0.694 | 0.269 | 0.151 | 0.101 |
| H3255 | 0.356 | 0.431 | 0.486 | 0.339 | 0.355 | 0.704 | 0.602 | 0.82 | 0.496 | 0.942 | 0.792 | 0.901 | 0.872 | 0.847 | 0.904 | 0.797 | 0.656 | 0.143 |
| HARA | 0.324 | 0.312 | 0.32 | 0.0493 | 0.0578 | 0.14 | 0.0884 | 0.0969 | 0.0782 | 0.97 | 0.807 | 0.951 | 0.695 | 0.871 | 0.576 | 0.615 | 0.051 | 0.0562 |
| HCC-15 | 0.609 | 0.654 | 0.673 | 0.3 | 0.0867 | 0.479 | 0.341 | 0.406 | 0.29 | 1.23 | 0.95 | 1.07 | 0.868 | 0.306 | 0.344 | 0.299 | 0.268 | 0.0676 |
| HCC-44 | – | – | – | – | – | 1.27 | 0.857 | 0.871 | 1.06 | – | – | – | – | 1.01 | 1.15 | 0.955 | 0.471 | 0.212 |
| HCC-78 | 0.228 | 0.459 | 0.323 | 0.435 | 0.2 | 0.399 | 1.61 | 0.41 | 0.486 | 0.622 | 0.562 | 0.557 | 0.514 | – | – | – | – | – |
| HCC-366 | 0.624 | 0.727 | 0.629 | 0.705 | 0.173 | 0.11 | 0.118 | 0.0926 | 0.0619 | 0.875 | 0.908 | 0.889 | 0.636 | – | – | – | – | – |
| HCC-827 | 0.3 | 0.306 | 0.239 | 0.374 | 0.273 | 0.414 | 0.376 | 0.399 | 0.378 | 0.959 | 0.959 | 0.956 | 0.797 | 0.344 | 0.635 | 0.625 | 0.721 | 0.281 |
